# Assay results published in patent US20030228672A1, “Sorbitol dehydrogenases of ketogulonigenium species, genes and methods of use thereof” (priority 2002, published 2003).
# B1: SDH1: sorbitol dehydrogenase of K. robustum ADM 86-96, 578 amino acids (SEQ ID NO:5) (protein, listed as Ketogulonigenium sp.)
# chain: MKSNSLLLASVAAVAFFAVPAFADVTPVTDELLANPPAGEWISYGRNQENYRHSPLNQITPDNVGQLQLVWARGMNPGVVQVTPLIHDGVMYLANPGDIIQAIDAKTGDLIWEHRRQLPETSTLSSLGDRKRGIALYGTNVYFVSWDNHMVALDAASGQVVFDVDRGQGDERVSNSSGPIVANGVIVAGSTCQYSPFGCFVSGHDASTGEELWRNYFIPQAGEEGDETWGNDYEARWMTGVWGQITYDPTTNLVFYGSSAVGPASEVQRGTPGGTLYGTNTRFAVRPDTGEVVWRHQTLPRDNWDQECTFEMMVANVDVQPAADMDGVQAINPNAATGERRVLTGVPCKTGTMWQFDAETGEFLWARDTNYQNMISSIDETGLVTVNEDIILKDLDTDYRICPTFLGGRDWPSASLNPDSGIYFIPLNNACADLAAVDQEFTAMDVYNTSATYLLAPEKENMGRIDAIDISTGKTLWSVERLASNYSPVLSTAGGVLFNGGSDRYFRALSEETGETLWQTRLATVASGQAISYELDGVQYVAIAGGGNTYGTNLNSNIGATIDSTSIGNAVYVFALPQ
# B2: SDH3: sorbitol dehydrogenase of K. robustum ADM 86-96, 580 amino acids (SEQ ID NO:8) (protein, listed as Ketogulonigenium sp.)
# chain: MRPTTLLRTSAAVLLLGPIPAFAQVTPITDELLANPPAGEWINYGRNQENYRHSPLEQITTDNVGQLQLVWARGMEAGAVQVTPMIHDGVMYLANPGDVIQAIDAKTGDLMWEHRRQLPPVASLNGQGDRKRGVALYGTNLYFTSWDNHLVALDMATGQVVFDVERGSGDDGLTSNTSGPIVANGVIVAGSTCQYSPYGCFVSGHDPASGEELWRNYFIPQAGEEGDETWGNDFESRWMTGVWGQLTYDPVTNLVHYGSTGVGPASETQRGTPGGTLYGTNTRFAVRPDTGEIVWRHQTLPRDNWDQECTFEMMVANVDVQPAADMDGVQAINPNATTGERRVLTGIPCKTGTMWQFDAETGEFLWARDTNYQNLIASIDETGLVTVNEDSVLTQLDTDYDICPTFLGGRDWPSAALNPDSGIYFIPLNNACVDIMAVDQEFSALDVYNTSASYKLAPGFENMGRIDAIDISTGKTLWSAERLASNYSPVLSTAGGVLFNGGTDRYLRALSQETGETLWQTRLASVATGQAISYEIDGTQYVAIAGGGSTYGTNQNRALSEAIDSTTIGNAVYVFALPQQ
# Columns and labels:
# [1] = system: purified SDH of K. robustum ADM X6L; assay: Substrate specificity of purified SDH, PMS-DCIP method; type: biochemical, Ketogulonigenium robustum ADM X6L; details: 1-Propanol = 100
# Method: (§1) The dehydrogenase enzyme activity was assayed spectrophotometrically using 2,6-dichlorophenol indophenol (DCIP) as an artificial electron acceptor and phenazine methosulphate (PMS) as an electron mediator. The reaction mixture contained 50 mM Tris·HCl buffer (pH 8.0), 10 mM MgCl2, 5 mM CaCl2, 5 mM KCN, 0.1 mM PMS, 0.12 mM DCIP, a substrate as D-sorbitol (250 mM), L-sorbose (250 mM) or glyoxal (50 mM) and enzyme solution in a total volumn of 1.0 ml. The rate of decrease in absorbance at 522 nm was determined. One unit of enzyme activity was defined as the amount of enzyme catalyzing reduction of 1 μmol of DCIP per minute.
# (§2) First, the periplasmic proteins from the cells of K. robustum ADM X6L and Ketogulonigenium sp. ADM 291-19 obtained in Step 1 of Example 1 were prepared by osmotic shock fractionation as described in Step 3 of Example 1. About 50 ml of osmotic shock fluid containing periplasmic proteins was loaded onto a DEAE-TSK 650 (S) (Merck) column (2.5×15 cm) previously equilibrated with 10 mM Tris·HCl buffer (pH 8.0). The column was first washed with 80 ml of 10 mM Tris·HCl buffer (pH 8.0) containing 0.1 M NaCl, followed by a gradient elution with 600 ml of the same buffer containing 0.1-0.5 M NaCl. Fractions containing 5 ml of eluant were collected and assayed for the SDH enzyme activities with D-sorbitol, L-sorbose and glyoxal as substrate. […] At about 0.15 M NaCl, eluted red fractions that probably contained cytochrome c.
# (§3) Active fractions eluted from DEAE column were pooled and further purified by gel filtration column chromatography. The active fractions were concentrated by about 20 fold with ultrafiltration in Centricon 30 (Amicon). The concentrate was loaded onto Superose 12 (Pharmacia) and eluted isocratically with 50 mM sodium phosphate buffer (pH 7.0) containing 0.15 M NaCl.
# (§4) The purified enzymes were active toward D-sorbitol, L-sorbose and glyoxal.
# [2] = system: purified SDH of Ketogulonigenium sp. ADM 291-19; assay: as above; type: biochemical; details: 1-Propanol = 100
# Method: The dehydrogenase enzyme activity was assayed spectrophotometrically using 2,6-dichlorophenol indophenol (DCIP) as an artificial electron acceptor and phenazine methosulphate (PMS) as an electron mediator. […] The rate of decrease in absorbance at 522 nm was determined. One unit of enzyme activity was defined as the amount of enzyme catalyzing reduction of 1 μmol of DCIP per minute.
# as §2, §3, §4
# purified SDH enzymes = assay: Activity of the purified SDH enzymes toward substrates; type: biochemical, K. robustum ADM X6L and Ketogulonigenium sp. ADM 291-19; details: purified SDH enzymes of both strains
# Method: as §2, §3, §4
# SDH = SDH activities in osmotic shock fractions, PMS-DCIP method; type: biochemical
# Method: For more detailed localization study, periplasmic fraction was enriched by the method of osmotic shock (Neu, H. C. and Heppel, L. A., J. Biol. Chem., 240:3685 (1965)). Wet cells were resuspended at about 0.1 g/ml in 20% sucrose-0.03 M Tris·HCl buffer (pH 8.0) at room temperature. Di-sodium EDTA was added to 1 mM and the flask was shaken at 180 rpm at room temperature for 10 min. After centrifugation at 16,000 g for 20 min at 4° C., the supernatant was removed and the pellet was rapidly mixed with cold distilled water of the same volume as the original cell suspension and shaken in ice bucket in a shaker for 10 min. The mixture was centrifuged again to obtain the supernatant called “osmotic shock fluid”. The pellet was sonicated in the same buffer, centrifuged and the supernatant was obtained as “pellet sonicate”.
# as §1
# For further localization of the enzymes to periplasm or cytoplasm, periplasm was enriched by osmotic shock method as described in Step 3 of Example 1. In this method, the Tris-Sucrose wash and the osmotic shock fluid represent the periplasmic fraction and the pellet sonicate represents the cytoplasm and the cytoplasmic membrane. […] The remaining activity in pellet sonicate could be due to the incomplete release of periplasm by osmotic shock. Typical enzyme activity assay for SDH and β-galactosidase for fractions obtained by osmotic shock fractionation is shown in Table 3.
# [3] = system: dehydrogenase enzyme activity (SDH) of Ketogulonigenium sp. ADM 291-19; assay: Enzyme activity in cellular fractions, Ferric-Dupanol method (localization); type: biochemical
# Method: (§5) Cells were harvested by centrifugation at 12,000 g for 10 min, washed once with 10 mM Tris·HCl buffer (pH 8.0) and disrupted by sonication in a Branson Sonifier 450 for 15 min at 50% duty cycle in ice. The homogenate thus prepared was centrifuged at 12,000 g for 5 min to remove the cell debris. The resulting supernatant was centrifuged at 100,000 g for 90 min to get the supernatant as soluble fraction and the precipitate as crude membrane fraction. The crude membrane fraction was solubilized with 1.5% n-octyl glucoside by stirring for 2 hours at 4° C. The resultant suspension was centrifuged at 12,000 g for 10 min to give a supernatant, designated as solubilized membrane fraction.
# (§6) Enzyme activity was determined also by the Ferric-Dupanol method (Wood, W. A. et al., Meth. Enzymol., 5, 287 (1962)). The enzyme was preincubated for 5 min at 25° C. The reaction was started by addition of 10 mM (final conc.) potassium ferricyanide and 250 mM (final conc.) D-sorbitol, L-sorbose, or glyoxal. After an appropriate time, the reaction was stopped by adding the ferric sulfate-Dupanol solution (Fe2(SO4)3.nH2O 5 g/l, Dupanol (sodium lauryl sulfate) 3 g/l and 85% phosphoric acid 95 ml/l) and the absorbance of the Prussian color developed was determined at 660 nm in a spectrophotometer.
# (§7) Enzyme activities towards D-sorbitol, L-sorbose and glyoxal in different cellular fractions were determined for enzyme localization in K. robustum ADM X6L and Ketogulonigenium sp. ADM 291-19. In both cases, most of the enzyme activity detected in crude cell extract was found in the soluble fraction and the activity in solubilized membrane fraction was negligible when assayed with Ferric-Dupanol method.
# [4] = system: dehydrogenase enzyme activity (SDH) of K. robustum ADM X6L; assay: as above; type: biochemical, Ketogulonigenium robustum ADM X6L
# Method: as §5, §6, §7
# [5] = system: K. robustum ADM X6L transformants; assay: Bioconversion of D-sorbitol by transformants, HPLC of culture supernatant; type: cell-based, Ketogulonigenium robustum ADM X6L; details: for improvement of L-sorbose production from D-sorbitol upon overexpression: flask scale experiment, versus pXH2 control; for L-sorbose production from D-sorbitol upon overexpression (in words): flask scale experiments
# Method: For expression of the three SDH genes in K. robustum strains, the genes with their own promoters were subcloned into the vector, pXH2/K5. These plasmids were transformed into the strains, K. robustum ADM X6L and 86-96 (NRRL B-21630), by electroporation. In this case, gene dosage effect may be expected due to the apparent high copy number of the plasmid pXH2/K5. The transformants were analyzed by HPLC for improved conversion activity upon overexpression of each SDH gene using D-sorbitol and L-sorbose as substrate.
# The effect of overexpression of the three SDH genes in bioconversion activity was analyzed by HPLC analysis of the product profile of the culture supernatant of transformants in a medium containing D-sorbitol or L-sorbose as substrate. The transformants were cultivated overnight in RM medium containing 20 μg/ml of Kanamycin. This overnight culture was used to inoculate the 25 ml RM medium (supplemented with 20 μg/ml of Kanamycin) containing 20 g/l of D-sorbitol or 20 g/l of L-sorbose as substrate instead of mannitol. The culture supernatant samples were taken in a 12-hour interval and were analyzed by HPLC (Gilson HPLC with RI detector (ERC-7515A, ERC Inc.)) equipped with Asted XL automatic sample injector. Samples were loaded on two 2 mm×300 mm×7.8 mm Aminex HPX-87H columns (BioRad) arranged in series to provide a total column length of 600 mm. The column was run at 50° C. at a flow rate of 0.5 ml/min. The peaks were identified and the concentration was determined by comparison with those of the standards using glycerol as internal standard.
# K. robustum ADM X6L transformants harboring the pXSDH1, pXSDH2 or pXSDH3 were cultivated with D-sorbitol or L-sorbose as substrate. HPLC analysis of the products from D-sorbitol (Table 10) or L-sorbose (Table 11) is shown below. A transformant harboring pXH2 served as control.
molecule,measurement,setting,value
CCCO [1-Propanol],"% relative activity, ADM X6L",[1]; substrate 50 mM,100%
same,"% relative activity, ADM291-19",[2]; substrate 50 mM,100%
O=C(CO)[C@@H](O)[C@H](O)[C@H](O)CO [D-Fructose],"% relative activity, ADM X6L",[1]; substrate 250 mM,8.0%
same,"% relative activity, ADM291-19",[2]; substrate 250 mM,11.7%
O=C(O)[C@H](O)[C@@H](O)[C@H](O)[C@H](O)CO [D-Gluconate],"% relative activity, ADM X6L",[1]; substrate 250 mM,30.6%
same,"% relative activity, ADM291-19",[2]; substrate 250 mM,20.0%
O=C[C@H](O)[C@@H](O)[C@H](O)[C@H](O)CO [D-Glucose],"% relative activity, ADM X6L",[1]; substrate 250 mM,27.6%
same,"% relative activity, ADM291-19",[2]; substrate 250 mM,20.0%
OC[C@@H](O)[C@@H](O)[C@H](O)[C@H](O)CO [D-Mannitol],"% relative activity, ADM X6L",[1]; substrate 100 mM,26.6%
same,"% relative activity, ADM291-19",[2]; substrate 100 mM,0%
OC[C@@H](O)[C@@H](O)[C@H](O)[C@@H](O)CO [D-sorbitol],activity of the purified enzymes toward the substrate (in words),purified SDH enzymes,active
same,"% relative activity, ADM X6L",[1]; substrate 250 mM,12.6%
same,"SDH activity, Osmotic Shock Fluid",SDH; Osmotic Shock Fluid (periplasmic fraction),0.45 ΔOD/min/50 μl enzyme
same,"SDH activity, Pellet Sonicate",SDH; Pellet Sonicate (cytoplasm and cytoplasmic membrane),0.68 ΔOD/min/50 μl enzyme
same,"SDH activity, Tris-Sucrose Wash",SDH; Tris-Sucrose Wash (periplasmic fraction),0.31 ΔOD/min/50 μl enzyme
same,"% relative activity, ADM291-19",[2]; substrate 250 mM,12.4%
same,"enzyme activity, Cell Free Extract",[3]; Cell Free Extract,0.66 ΔOD/min/2 μl enzyme
same,"enzyme activity, Membrane Fraction",[3]; Membrane Fraction,0.00 ΔOD/min/2 μl enzyme
same,"enzyme activity, Soluble Fraction",[3]; Soluble Fraction,0.65 ΔOD/min/2 μl enzyme
same,"enzyme activity, Cell Free Extract",[4]; Cell Free Extract,0.92 ΔOD/min/4 μl enzyme
same,"enzyme activity, Membrane Fraction",[4]; Membrane Fraction,0.01 ΔOD/min/4 μl enzyme
same,"enzyme activity, Soluble Fraction",[4]; Soluble Fraction,0.90 ΔOD/min/4 μl enzyme
CCO [Ethanol],"% relative activity, ADM X6L",[1]; substrate 50 mM,20.0%
same,"% relative activity, ADM291-19",[2]; substrate 50 mM,38.0%
OCC(O)CO [Glycerol],"% relative activity, ADM X6L",[1]; substrate 250 mM,56.5%
same,"% relative activity, ADM291-19",[2]; substrate 250 mM,32.5%
B1,improvement of L-sorbose production from D-sorbitol upon overexpression,[5],~2 times
same,L-sorbose production from D-sorbitol upon overexpression (in words),[5],significantly improved
B2,improvement of L-sorbose production from D-sorbitol upon overexpression,[5],~3 times
same,L-sorbose production from D-sorbitol upon overexpression (in words),[5],significantly improved
